In one assay the target is T1, his-galectin-3 (Homo sapiens, UniProt P17931).
T1 construct: purchased Abcam
T1 sequence (P17931 whole entry): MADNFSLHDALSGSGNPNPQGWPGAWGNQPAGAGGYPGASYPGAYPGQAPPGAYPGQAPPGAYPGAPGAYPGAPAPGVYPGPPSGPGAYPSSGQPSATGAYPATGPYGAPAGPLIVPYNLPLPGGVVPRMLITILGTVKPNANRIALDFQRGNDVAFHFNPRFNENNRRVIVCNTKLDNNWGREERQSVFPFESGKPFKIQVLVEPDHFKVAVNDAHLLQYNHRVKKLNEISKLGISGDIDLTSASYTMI
Nature of the assay: TR-FRET assay (in vitro galectin-3 binding inhibitory activity test). The settings on record: Table 1; compound at 20 μM; 60 nM his-galectin-3, 15 nM biotin-ASF; read-out: % Inhibitory activity (at 20 μM). Put shortly:
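Compound is premixed with his-galectin-3 (60 nM final), then biotin-ASF (15 nM), Tb anti-His antibody (2 nM) and streptavidin-d2 (20 nM) are added. After at least 3.5 hours at RT in HEPES/NaCl buffer with Tween 20 and BSA, TR-FRET is read at 615/665 nm. DMSO serves as the uninhibited control, ASF omission as background.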
For the compound `OC[C@H]1O[C@]2(OCC[C@H]2c2ccccc2)[C@H](O)[C@@H](n2cc(-c3cc(F)c(F)c(F)c3)nn2)[C@H]1O` [Compound A30, (4S,5S,7R,8R,9S,10R)-7-(hydroxymethyl)-4-phenyl-9-(4-(3,4,5-trifluorophenyl)-1H-1,2,3-triazol-1-yl)-1,6-dioxaspiro[4.5]decane-8,10-diol], the inhibition at 20 µM is under 25%. The same measure, in the same setting: the same measure for `O=C(O[C@@H]1[C@@H](n2cc(-c3cc(F)c(F)c(F)c3)nn2)[C@@H](O)[C@@H](CO)O[C@@]12CCCO2)c1cccc(C(F)(F)F)c1` [Compound A73, (5S,7R,8R,9S,10R)-8-hydroxy-7-(hydroxymethyl)-9-(4-(3,4,5-trifluorophenyl)-1H-1,2,3-triazol-1-yl)-1,6-dioxaspiro[4.5]decan-10-yl 3-(trifluoromethyl)benzoate]: under 25%; for `COc1cccc(CN[C@@H]2CCO[C@]23O[C@H](CO)[C@H](O)[C@H](n2cc(-c4cc(F)c(F)c(F)c4)nn2)[C@H]3O)c1O` [Compound A132, (4R,5S,7R,8R,9S,10R)-4-((2,3-hydroxy-3-methoxybenzyl)amino)-7-(hydroxymethyl)-9-(4-(3,4,5-trifluorophenyl)-1H-1,2,3-triazol-1-yl)-1,6-dioxaspiro[4.5]decane-8,10-diol]: 25 to 50%; for `OC[C@H]1O[C@]2(OCC[C@H]2NCc2ccccc2O)[C@H](O)[C@@H](n2cc(-c3cc(F)c(F)c(F)c3)nn2)[C@H]1O` [Compound A125, (4R,5S,7R,8R,9S,10R)-4-((2-hydroxybenzyl)amino)-7-(hydroxymethyl)-9-(4-(3,4,5-trifluorophenyl)-1H-1,2,3-triazol-1-yl)-1,6-dioxaspiro[4.5]decane-8,10-diol]: under 25%. `COC(=O)CO[C@@H]1[C@@H](n2cc(-c3cc(F)c(F)c(F)c3)nn2)[C@@H](O)[C@@H](CO)O[C@@]12CCCCO2` [Compound A32, methyl-2-(((2R,3R,4S,5R,6S)-3-hydroxy-2-(hydroxymethyl)-4-(4-(3,4,5-trifluorophenyl)-1H-1,2,3-triazol-1-yl)-1,7-dioxaspiro[5.5]undecan-5-yl)oxy)acetate]: the inhibition at 20 µM lay within 25 to 50%. As to `OC[C@H]1O[C@@]2(CCCO2)[C@H](OCc2ccccc2)[C@@H](n2cc(-c3cc(F)c(F)c(F)c3)nn2)[C@H]1O` [Compound A13, (5S,7R,8R,9S,10R)-10-(benzyloxy)-7-(hydroxymethyl)-9-(4-(3,4,5-trifluorophenyl)-1H-1,2,3-triazol-1-yl)-1,6-dioxaspiro[4.5]decan-8-ol], the inhibition at 20 µM was 25 to 50%. Regarding `OC[C@H]1O[C@@]2(CCCO2)[C@H](OCc2ccncc2)[C@@H](n2cc(-c3cc(F)c(F)c(F)c3)nn2)[C@H]1O` [Compound A18, (5S,7R,8R,9S,10R)-7-(hydroxymethyl)-10-(pyridin-4-ylmethoxy)-9-(4-(3,4,5-trifluorophenyl)-1H-1,2,3-triazol-1-yl)-1,6-dioxaspiro[4.5]decan-8-ol acetate], the inhibition at 20 µM fell in the range of 25 to 50%.

With `OC[C@H]1O[C@]2(OCC[C@H]2NCc2cccc(Cl)c2)[C@H](O)[C@@H](n2cc(-c3cc(F)c(F)c(F)c3)nn2)[C@H]1O` [Compound A86, (4R,5S,7R,8R,9S,10R)-4-((3-chlorobenzyl)amino)-7-(hydroxymethyl)-9-(4-(3,4,5-trifluorophenyl)-1H-1,2,3-triazol-1-yl)-1,6-dioxaspiro[4.5]decane-8,10-diol], the inhibition at 20 µM is over 75%. For the compound `O=C(N[C@@H]1CCO[C@]12O[C@H](CO)[C@H](O)[C@H](n1cc(-c3cc(F)c(F)c(F)c3)nn1)[C@H]2O)c1cc2ccccc2o1` [Compound A123, N-((4R,5S,7R,8R,9S,10R)-8,10-dihydroxy-7-(hydroxymethyl)-9-(4-(3,4,5-trifluorophenyl)-1H-1,2,3-triazol-1-yl)-1,6-dioxaspiro[4.5]decan-4-yl)benzofuran-2-carboxamide], the inhibition at 20 µM fell in the range of 50 to 75%. Still for that read-out and setting: the same measure for `O=C(N[C@@H]1CCO[C@]12O[C@H](CO)[C@H](O)[C@H](n1cc(-c3cc(F)c(F)c(F)c3)nn1)[C@H]2O)C(F)(F)c1ccccc1` [Compound A147, N-((4R,5S,7R,8R,9S,10R)-8,10-dihydroxy-7-(hydroxymethyl)-9-(4-(3,4,5-trifluorophenyl)-1H-1,2,3-triazol-1-yl)-1,6-dioxaspiro[4.5]decan-4-yl)-2,2-difluoro-2-phenylacetamide]: under 25%; for `O=C(O[C@@H]1[C@@H](n2cc(-c3cc(F)c(F)c(F)c3)nn2)[C@@H](O)[C@@H](CO)O[C@@]12CCCO2)c1ccncc1` [Compound A80, (5S,7R,8R,9S,10R)-8-hydroxy-7-(hydroxymethyl)-9-(4-(3,4,5-trifluorophenyl)-1H-1,2,3-triazol-1-yl)-1,6-dioxaspiro[4.5]decan-10-yl isonicotinate]: 25 to 50%; for `O=C(Cc1cccc(C(F)(F)F)c1)N[C@@H]1CCO[C@]12O[C@H](CO)[C@H](O)[C@H](n1cc(-c3cc(F)c(F)c(F)c3)nn1)[C@H]2O` [Compound A136, N-((4R,5S,7R,8R,9S,10R)-8,10-dihydroxy-7-(hydroxymethyl)-9-(4-(3,4,5-trifluorophenyl)-1H-1,2,3-triazol-1-yl)-1,6-dioxaspiro[4.5]decan-4-yl)-2-(3-(trifluoromethyl)phenyl)acetamide]: over 75%.

The same assay, now with this note: Table 2; compound at 20 μM; 60 nM his-galectin-3, 15 nM biotin-ASF; read-out: % Inhibitory activity (at 20 μM).
For `OC[C@H]1O[C@@]2(CCCN(c3cccs3)C2)[C@H](O)[C@@H](n2cc(-c3cc(F)c(F)c(F)c3)nn2)[C@H]1O` [Compound A225, (2R,3R,4S,5R,6R)-2-(hydroxymethyl)-8-(thiophen-2-yl)-4-(4-(3,4,5-trifluorophenyl)-1H-1,2,3-triazol-1-yl)-1-oxa-8-azaspiro[5.5]undecane-3,5-diol], the inhibition at 20 µM was under 25%.

As for `OC[C@H]1O[C@]2(OCC[C@H]2n2ccnn2)[C@H](O)[C@@H](n2cc(-c3cc(F)c(F)c(F)c3)nn2)[C@H]1O` [Compound A153, (4R,5S,7R,8R,9S,10R)-7-(hydroxymethyl)-4-(1H-1,2,3-triazol-1-yl)-9-(4-(3,4,5-trifluorophenyl)-1H-1,2,3-triazol-1-yl)-1,6-dioxaspiro[4.5]decane-8,10-diol], the inhibition at 20 µM is under 25%.

For `O=C(N[C@@H]1CCO[C@]12O[C@H](CO)[C@H](O)[C@H](n1cc(-c3cc(F)c(F)c(F)c3)nn1)[C@H]2O)c1cccc(-c2ccccc2F)c1` [Compound A164, N-((4R,5S,7R,8R,9S,10R)-8,10-dihydroxy-7-(hydroxymethyl)-9-(4-(3,4,5-trifluorophenyl)-1H-1,2,3-triazol-1-yl)-1,6-dioxaspiro[4.5]decan-4-yl)-2′-fluoro-[1,1′-biphenyl]-3-carboxamide], the inhibition at 20 µM is over 75%. For `Cc1cc(C(=O)N[C@@H]2CCO[C@]23O[C@H](CO)[C@H](O)[C@H](n2cc(-c4cc(F)c(F)c(F)c4)nn2)[C@H]3O)c2cc(Br)ccc2n1` [Compound A231, 6-bromo-N-((4R,5S,7R,8R,9S,10R)-8,10-dihydroxy-7-(hydroxymethyl)-9-(4-(3,4,5-trifluorophenyl)-1H-1,2,3-triazol-1-yl)-1,6-dioxaspiro[4.5]decan-4-yl)-2-methylquinoline-4-carboxamide], the inhibition at 20 µM is over 75%. As to `O=C(N[C@@H]1CCO[C@]12O[C@H](CO)[C@H](O)[C@H](n1cc(-c3cc(F)c(F)c(F)c3)nn1)[C@H]2O)c1cccc2ncc(F)cc12` [Compound A216, N-((4R,5S,7R,8R,9S,10R)-8,10-dihydroxy-7-(hydroxymethyl)-9-(4-(3,4,5-trifluorophenyl)-1H-1,2,3-triazol-1-yl)-1,6-dioxaspiro[4.5]decan-4-yl)-3-fluoroquinoline-5-carboxamide], the inhibition at 20 µM was over 75%. On the same count and under the same terms, the same measure for `O=C(N[C@@H]1CCO[C@]12O[C@H](CO)[C@H](O)[C@H](n1cc(-c3cc(F)c(F)c(F)c3)nn1)[C@H]2O)c1nsc2cc(Br)ccc12` [Compound A197, 6-bromo-N-((4R,5S,7R,8R,9S,10R)-8,10-dihydroxy-7-(hydroxymethyl)-9-(4-(3,4,5-trifluorophenyl)-1H-1,2,3-triazol-1-yl)-1,6-dioxaspiro[4.5]decan-4-yl)benzo[d]isothiazole-3-carboxamide]: 50 to 75%; for `O=C(N[C@@H]1CCO[C@]12O[C@H](CO)[C@H](O)[C@H](n1cc(-c3cc(F)c(F)c(F)c3)nn1)[C@H]2O)c1ccnc2ccccc12` [Compound A207, N-((4R,5S,7R,8R,9S,10R)-8,10-dihydroxy-7-(hydroxymethyl)-9-(4-(3,4,5-trifluorophenyl)-1H-1,2,3-triazol-1-yl)-1,6-dioxaspiro[4.5]decan-4-yl)quinoline-4-carboxamide]: over 75%. As for `Cc1cc(C(=O)N[C@@H]2CCO[C@]23O[C@H](CO)[C@H](O)[C@H](n2cc(-c4cc(F)c(F)c(F)c4)nn2)[C@H]3O)c2cc(F)ccc2n1` [Compound A228, N-((4R,5S,7R,8R,9S,10R)-8,10-dihydroxy-7-(hydroxymethyl)-9-(4-(3,4,5-trifluorophenyl)-1H-1,2,3-triazol-1-yl)-1,6-dioxaspiro[4.5]decan-4-yl)-6-fluoro-2-methylquinoline-4-carboxamide], the inhibition at 20 µM was over 75%.

Still in this assay, the particulars now being: Table 3, found values; compound at 20 μM; 60 nM his-galectin-3, 15 nM biotin-ASF; read-out: % Inhibitory activity (at 20 μM).
For the compound `COC(=O)CO[C@@H]1[C@@H](n2cc(-c3cc(F)c(F)c(F)c3)nn2)[C@@H](O)[C@@H](CO)O[C@@]12CCCCO2` [Compound A32, methyl-2-(((2R,3R,4S,5R,6S)-3-hydroxy-2-(hydroxymethyl)-4-(4-(3,4,5-trifluorophenyl)-1H-1,2,3-triazol-1-yl)-1,7-dioxaspiro[5.5]undecan-5-yl)oxy)acetate], the inhibition at 20 µM amounted to 36.7%. The same measure, in the same setting: the same measure for `OC[C@H]1O[C@]2(OCC[C@H]2NCc2cccc(Cl)c2)[C@H](O)[C@@H](n2cc(-c3cc(F)c(F)c(F)c3)nn2)[C@H]1O` [Compound A86, (4R,5S,7R,8R,9S,10R)-4-((3-chlorobenzyl)amino)-7-(hydroxymethyl)-9-(4-(3,4,5-trifluorophenyl)-1H-1,2,3-triazol-1-yl)-1,6-dioxaspiro[4.5]decane-8,10-diol]: 80.3%.

The assay is the same for the next values; noted with them: read-out: % Inhibitory activity (at 20 μM), Table 1; compound at 20 μM; 60 nM his-galectin-3, 15 nM biotin-ASF.
For the compound `O=C(O[C@@H]1[C@@H](n2cc(-c3cc(F)c(F)c(F)c3)nn2)[C@@H](O)[C@@H](CO)O[C@@]12CCCCO2)c1ccccn1` [Compound A57], the inhibition at 20 µM was 50 to 75%.

Source of the values: patent publication US20250026778A1 (TIUMBIO CO., LTD., priority 2021, published 2025).
